Data taken from patent US20120220562A1, “Anti-Viral Compounds” (ABBOTT LABAORATORIES, priority 2011, published 2012).

system: HCV 1b-Con1 replicon; test: HCV 1b-Con1 replicon assay in the presence of 5% FBS; format: cell-based; details: Hepatitis C virus

Row | Structure (SMILES) | EC50 [pM]
1 | COC(=O)N[C@H](C(=O)N1CCC[C@H]1c1nc2cc([C@H]3CC[C@H](c4ccc5[nH]c([C@@H]6CCCN6C(=O)[C@@H](NC(=O)OC)C(C)C)nc5c4)N3c3cc(F)c(N4CCC(c5ccc(F)cc5)CC4)c(F)c3)ccc2[nH]1)C(C)C [Example 3.42, methyl {(2S)-1-[(2S)-2-{5-[(2R,5R)-1-{3,5-difluoro-4-[4-(4-fluorophenyl)piperidin-1-yl]phenyl}-5-{2-[(2S)-1-{(2S)-2-[(methoxycarbonyl)amino]-3-methylbutanoyl}pyrrolidin-2-yl]-1H-benzimidazol-5-yl}pyrrolidin-2-yl]-1H-benzimidazol-2-yl}pyrrolidin-1-yl]-3-methyl-1-oxobutan-2-yl}carbamate] | < 100
2 | COC(=O)N[C@H](C(=O)N1CCC[C@H]1c1nc2cc([C@H]3CC[C@H](c4ccc5[nH]c([C@@H]6CCCN6C(=O)[C@@H](NC(=O)OC)C(C)C)nc5c4)N3c3cc(F)c(N4CCC(c5cccc([Si](C)(C)C)c5)CC4)c(F)c3)ccc2[nH]1)C(C)C [Example 3.43, methyl {(2S)-1-[(2S)-2-{5-[(2R,5R)-1-(3,5-difluoro-4-{4-[3-(trimethylsilyl)phenyl]piperidin-1-yl}phenyl)-5-{2-[(2S)-1-{(2S)-2-[(methoxycarbonyl)amino]-3-methylbutanoyl}pyrrolidin-2-yl]-1H-benzimidazol-5-yl}pyrrolidin-2-yl]-1H-benzimidazol-2-yl}pyrrolidin-1-yl]-3-methyl-1-oxobutan-2-yl}carbamate] | < 100
3 | COC(=O)N[C@H](C(=O)N1CCC[C@H]1c1nc2cc([C@H]3CC[C@H](c4ccc5[nH]c([C@@H]6CCCN6C(=O)[C@@H](NC(=O)OC)C(C)C)nc5c4)N3c3cc(F)c(N4CCC(c5ccc(F)c(F)c5)CC4)c(F)c3)ccc2[nH]1)C(C)C [Example 3.44, methyl {(2S)-1-[(2S)-2-{5-[(2R,5R)-1-{4-[4-(3,4-difluorophenyl)piperidin-1-yl]-3,5-difluorophenyl}-5-{2-[(2S)-1-{(2S)-2-[(methoxycarbonyl)amino]-3-methylbutanoyl}pyrrolidin-2-yl]-1H-benzimidazol-5-yl}pyrrolidin-2-yl]-1H-benzimidazol-2-yl}pyrrolidin-1-yl]-3-methyl-1-oxobutan-2-yl}carbamate] | < 100
4 | COC(=O)N[C@H](C(=O)N1CCC[C@H]1c1nc2cc([C@H]3CC[C@H](c4ccc5[nH]c([C@@H]6CCCN6C(=O)[C@@H](NC(=O)OC)C(C)C)nc5c4)N3c3cc(F)c(N4CCC(c5cc(F)cc(F)c5)CC4)c(F)c3)ccc2[nH]1)C(C)C [Example 3.45, methyl {(2S)-1-[(2S)-2-{5-[(2R,5R)-1-{4-[4-(3,5-difluorophenyl)piperidin-1-yl]-3,5-difluorophenyl}-5-{2-[(2S)-1-{(2S)-2-[(methoxycarbonyl)amino]-3-methylbutanoyl}pyrrolidin-2-yl]-1H-benzimidazol-5-yl}pyrrolidin-2-yl]-1H-benzimidazol-2-yl}pyrrolidin-1-yl]-3-methyl-1-oxobutan-2-yl}carbamate] | < 100
5 | COC(=O)N[C@H](C(=O)N1CCC[C@H]1c1nc2cc([C@H]3CC[C@@H](c4cc5nc([C@@H]6CCCN6C(=O)[C@@H](NC(=O)OC)C(C)C)[nH]c5cc4F)N3c3cnc(N4CCC(c5ccccc5)CC4)nc3)c(F)cc2[nH]1)C(C)C [Example 3.46, methyl {(2S)-1-[(2S)-2-(6-fluoro-5-{(2R,5S)-5-{6-fluoro-2-[(2S)-1-{(2S)-2-[(methoxycarbonyl)amino]-3-methylbutanoyl}pyrrolidin-2-yl]-1H-benzimidazol-5-yl}-1-[2-(4-phenylpiperidin-1-yl)pyrimidin-5-yl]pyrrolidin-2-yl}-1H-benzimidazol-2-yl)pyrrolidin-1-yl]-3-methyl-1-oxobutan-2-yl}carbamate] | < 100
6 | COC(=O)N[C@H](C(=O)N1CCC[C@H]1c1nc2cc([C@H]3CC[C@@H](c4cc5nc([C@@H]6CCCN6C(=O)[C@@H](NC(=O)OC)C(C)C)[nH]c5cc4F)N3c3cnc(N4CCCCC4)nc3)c(F)cc2[nH]1)C(C)C [Example 3.47, methyl {(2S)-1-[(2S)-2-(6-fluoro-5-{(2R,5S)-5-{6-fluoro-2-[(2S)-1-{(2S)-2-[(methoxycarbonyl)amino]-3-methylbutanoyl}pyrrolidin-2-yl]-1H-benzimidazol-5-yl}-1-[2-(piperidin-1-yl)pyrimidin-5-yl]pyrrolidin-2-yl}-1H-benzimidazol-2-yl)pyrrolidin-1-yl]-3-methyl-1-oxobutan-2-yl}carbamate] | < 100
7 | COC(=O)N[C@H](C(=O)N1CCC[C@H]1c1nc2cc([C@H]3CC[C@H](c4cc5nc([C@@H]6CCCN6C(=O)[C@@H](NC(=O)OC)[C@@H](C)OC)[nH]c5cc4F)N3c3cc(F)c(N4CCN(c5c(F)cccc5F)CC4)c(F)c3)c(F)cc2[nH]1)[C@@H](C)OC [Example 3.48, methyl {(2S,3R)-1-[(2S)-2-{5-[(2R,5R)-1-{4-[4-(2,6-difluorophenyl)piperazin-1-yl]-3,5-difluorophenyl}-5-(6-fluoro-2-{(2S)-1-[N-(methoxycarbonyl)-O-methyl-L-threonyl]pyrrolidin-2-yl}-1H-benzimidazol-5-yl)pyrrolidin-2-yl]-6-fluoro-1H-benzimidazol-2-yl}pyrrolidin-1-yl]-3-methoxy-1-oxobutan-2-yl}carbamate] | < 100
8 | COC(=O)N[C@H](C(=O)N1CCC[C@H]1c1nc2cc([C@@H]3CC[C@@H](c4cc5nc([C@@H]6CCCN6C(=O)[C@@H](NC(=O)OC)[C@@H](C)OC)[nH]c5cc4F)N3c3cc(F)c(N4CCN(c5c(F)cccc5F)CC4)c(F)c3)c(F)cc2[nH]1)[C@@H](C)OC [Example 3.49, methyl {(2S,3R)-1-[(2S)-2-{5-[(2S,5S)-1-{4-[4-(2,6-difluorophenyl)piperazin-1-yl]-3,5-difluorophenyl}-5-(6-fluoro-2-{(2S)-1-[N-(methoxycarbonyl)-O-methyl-L-threonyl]pyrrolidin-2-yl}-1H-benzimidazol-5-yl)pyrrolidin-2-yl]-6-fluoro-1H-benzimidazol-2-yl}pyrrolidin-1-yl]-3-methoxy-1-oxobutan-2-yl}carbamate] | < 100
9 | COC(=O)N[C@H](C(=O)N1CCC[C@H]1c1nc2cc([C@@H]3CC[C@@H](c4cc5nc([C@@H]6CCCN6C(=O)[C@@H](NC(=O)OC)C(C)C)[nH]c5cc4F)N3c3cc(F)c(N4CCN(c5c(F)cccc5F)CC4)c(F)c3)c(F)cc2[nH]1)C(C)C [Example 3.50, methyl {(2S)-1-[(2S)-2-{5-[(2S,5S)-1-{4-[4-(2,6-difluorophenyl)piperazin-1-yl]-3,5-difluorophenyl}-5-{6-fluoro-2-[(2S)-1-{(2S)-2-[(methoxycarbonyl)amino]-3-methylbutanoyl}pyrrolidin-2-yl]-1H-benzimidazol-5-yl}pyrrolidin-2-yl]-6-fluoro-1H-benzimidazol-2-yl}pyrrolidin-1-yl]-3-methyl-1-oxobutan-2-yl}carbamate] | < 100
10 | COC(=O)N[C@H](C(=O)N1CCC[C@H]1c1nc2cc([C@H]3CC[C@H](c4cc5nc([C@@H]6CCCN6C(=O)[C@@H](NC(=O)OC)C6CCOCC6)[nH]c5cc4F)N3c3cc(F)c(N4CCN(c5c(F)cccc5F)CC4)c(F)c3)c(F)cc2[nH]1)C1CCOCC1 [Example 3.51, dimethyl ([(2R,5R)-1-{4-[4-(2,6-difluorophenyl)piperazin-1-yl]-3,5-difluorophenyl}pyrrolidine-2,5-diyl]bis{(6-fluoro-1H-benzimidazole-5,2-diyl)(2S)pyrrolidine-2,1-diyl[(1S)-2-oxo-1-(tetrahydro-2H-pyran-4-yl)ethane-2,1-diyl]})biscarbamate] | < 100
11 | COC(=O)N[C@H](C(=O)N1CCC[C@H]1c1nc2cc([C@H]3CC[C@H](c4cc5nc([C@@H]6CCCN6C(=O)[C@@H](NC(=O)OC)[C@@H](C)OC)[nH]c5cc4F)N3c3cc(F)c(N4CCC(c5ccc(F)cc5)CC4)c(F)c3)c(F)cc2[nH]1)[C@@H](C)OC [Example 3.52, methyl {(2S,3R)-1-[(2S)-2-{5-[(2R,5R)-1-{3,5-difluoro-4-[4-(4-fluorophenyl)piperidin-1-yl]phenyl}-5-(6-fluoro-2-{(2S)-1-[N-(methoxycarbonyl)-O-methyl-L-threonyl]pyrrolidin-2-yl}-1H-benzimidazol-5-yl)pyrrolidin-2-yl]-6-fluoro-1H-benzimidazol-2-yl}pyrrolidin-1-yl]-3-methoxy-1-oxobutan-2-yl}carbamate] | < 100
12 | COC(=O)N[C@H](C(=O)N1CCC[C@H]1c1nc2cc([C@H]3CC[C@H](c4cc5nc([C@@H]6CCCN6C(=O)[C@@H](NC(=O)OC)C6CCOCC6)[nH]c5cc4F)N3c3cc(F)c(N4CCC(c5ccc(F)cc5)CC4)c(F)c3)c(F)cc2[nH]1)C1CCOCC1 [Example 3.53, dimethyl ([(2R,5R)-1-{3,5-difluoro-4-[4-(4-fluorophenyl)piperidin-1-yl]phenyl}pyrrolidine-2,5-diyl]bis{(6-fluoro-1H-benzimidazole-5,2-diyl)(2S)pyrrolidine-2,1-diyl[(1S)-2-oxo-1-(tetrahydro-2H-pyran-4-yl)ethane-2,1-diyl]})biscarbamate] | < 100
13 | COC(=O)N[C@H](C(=O)N1CCC[C@H]1c1nc2ccc([C@H]3CC[C@H](c4ccc5nc([C@@H]6CCCN6C(=O)[C@@H](NC(=O)OC)C(C)C)[nH]c5c4)N3c3ccc(OC4CCCC4)c(F)c3)cc2[nH]1)C(C)C [Example 4.1, methyl {(2S)-1-[(2S)-2-{6-[(2R,5R)-1-[4-(cyclopentyloxy)-3-fluorophenyl]-5-{2-[(2S)-1-{(2S)-2-[(methoxycarbonyl)amino]-3-methylbutanoyl}pyrrolidin-2-yl]-1H-benzimidazol-6-yl}pyrrolidin-2-yl]-1H-benzimidazol-2-yl}pyrrolidin-1-yl]-3-methyl-1-oxobutan-2-yl}carbamate] | < 100
14 | COC(=O)N[C@H](C(=O)N1CCC[C@H]1c1nc2cc([C@H]3CC[C@H](c4ccc5[nH]c([C@@H]6CCCN6C(=O)[C@@H](NC(=O)OC)C(C)C)nc5c4)N3c3ccc(N4CCCCC4)c(C)c3)ccc2[nH]1)C(C)C [Example 4.2, methyl {(2S)-1-[(2S)-2-(5-{(2R,5R)-5-{2-[(2S)-1-{(2S)-2-[(methoxycarbonyl)amino]-3-methylbutanoyl}pyrrolidin-2-yl]-1H-benzimidazol-5-yl}-1-[3-methyl-4-(piperidin-1-yl)phenyl]pyrrolidin-2-yl}-1H-benzimidazol-2-yl)pyrrolidin-1-yl]-3-methyl-1-oxobutan-2-yl}carbamate] | < 100
